What was measured:
[1] = system: MM.1S cells; experiment: Inhibition of proliferation of multiple myeloma cells MM.1S (cell viability assay, 96 h); assay type: cell-based, human; conditions: read-out: inhibitory activity (IC50) against tumor cells proliferation, MM.1S
[2] = system: Jurkat cells; experiment: Inhibition of proliferation of T lymphocytic leukemia cells Jurkat (cell viability assay, 96 h); assay type: cell-based, human; conditions: read-out: inhibitory activity (IC50) against tumor cells proliferation, Jurkat
[3] = system: MGC803 cells; experiment: Inhibition of proliferation of gastric cancer cells MGC803 (cell viability assay, 96 h); assay type: cell-based, human; conditions: read-out: inhibitory activity (IC50) against tumor cells proliferation, MGC803
Method: The tumor cells used herein were cultured in a cell culture medium listed in table 2 at 37 °C in an incubator with 5% CO2. Prior to experimentation, all cell lines used were correctly identified by STR profiling, and tested negative for Mycoplasma contamination using a Mycoplasma detection kit through routine screenings.
The IC50 values of the compounds of the present disclosure (including the compounds in Table 1, and Examples 1-498) were determined using the CellTiter-Meiluncell Luminescent Cell Viability Assay Kit from Dalian Meilun Biotech Co., Ltd. The detailed procedure is as follows: Tumor cells were seeded in 96-well cell culture plates at the densities specified in Table 3. On the following day, the test compounds of the present disclosure were subjected to serial dilution. […] Subsequently, 0.5 μL of the test compound dilution was transferred into the 96-well plate containing the cells, with each well containing 100 μL of cell culture medium. […] Into the 96-well plate, the diluted test compounds and corresponding detection reagents were added, resulting in final test compound concentrations of 500 nM and 10 nM, respectively. The experimental procedure is described below using the diluted 2 μM test compound as an example.
0.5 μL of the aforementioned diluted compound of the present disclosure (including the compounds in Table 1, and Examples 1-498) was added to the seeded cells in 100 μL of medium, yielding a final test compound concentration of 10 nM. After the cells were treated with the compounds of the present disclosure for a specified period, the cell viability assay reagent was added to the culture medium according to the kit's instructions to determine cell viability. […] All controls were treated using the same procedure as the compounds of the present disclosure. The growth inhibition curves for the compounds of the present disclosure were plotted using Prism GraphPad software, and the IC50 values were calculated therefrom.

[4] = target: T1, CK1α (Homo sapiens, UniProt P48729+Q96SW2); experiment: Western blot degradation of CK1α in hPBMCs (24 h); assay type: cell-based; conditions: compounds at 50 nM and 500 nM
T1 construct: The supernatant was aspirated as the extracted total cell protein; endogenous in cells; host or cells: human peripheral blood mononuclear cells (hPBMCs)
Outline: (§1)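 In this assay, each compound was incubated with human PBMCs for 24 h at 50 nM and 500 nM. Target levels were measured by Western blot densitometry normalised to an internal control.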

[5] = target: T2, IKZF2 (Homo sapiens, UniProt Q96SW2+Q9UKS7); experiment: Western blot degradation of IKZF2 in hPBMCs (24 h); assay type: cell-based; conditions: compounds at 50 nM and 500 nM
T2 construct: The supernatant was aspirated as the extracted total cell protein; endogenous in cells; host or cells: human peripheral blood mononuclear cells (hPBMCs)
Outline: as §1

[6] = target: T3, GSPT1 (Homo sapiens, UniProt P15170+Q96SW2); experiment: Western blot degradation of GSPT1 in hPBMCs (24 h); assay type: cell-based; conditions: compounds at 50 nM and 500 nM
T3 construct: The supernatant was aspirated as the extracted total cell protein; endogenous in cells; host or cells: human peripheral blood mononuclear cells (hPBMCs)
Outline: as §1

[7] = target: T4, IKZF3 (Homo sapiens, UniProt Q96SW2+Q9UKT9); experiment: Western blot degradation of IKZF3 in hPBMCs (24 h); assay type: cell-based; conditions: compounds at 50 nM and 500 nM
T4 construct: The supernatant was aspirated as the extracted total cell protein; endogenous in cells; host or cells: human peripheral blood mononuclear cells (hPBMCs)
Outline: as §1

[8] = target: T5, IKZF1 (Homo sapiens, UniProt Q13422+Q96SW2); experiment: Western blot degradation of IKZF1 in hPBMCs (24 h); assay type: cell-based; conditions: compounds at 50 nM and 500 nM
T5 construct: The supernatant was aspirated as the extracted total cell protein; endogenous in cells; host or cells: human peripheral blood mononuclear cells (hPBMCs)
Outline: as §1

[9] = target: T6, WEE1 (Homo sapiens, UniProt P30291+Q96SW2); experiment: Western blot degradation of WEE1 in hPBMCs (24 h); assay type: cell-based; conditions: compounds at 50 nM and 500 nM
T6 construct: The supernatant was aspirated as the extracted total cell protein; endogenous in cells; host or cells: human peripheral blood mononuclear cells (hPBMCs)
Outline: as §1

T2 sequence (Q9UKS7 whole entry): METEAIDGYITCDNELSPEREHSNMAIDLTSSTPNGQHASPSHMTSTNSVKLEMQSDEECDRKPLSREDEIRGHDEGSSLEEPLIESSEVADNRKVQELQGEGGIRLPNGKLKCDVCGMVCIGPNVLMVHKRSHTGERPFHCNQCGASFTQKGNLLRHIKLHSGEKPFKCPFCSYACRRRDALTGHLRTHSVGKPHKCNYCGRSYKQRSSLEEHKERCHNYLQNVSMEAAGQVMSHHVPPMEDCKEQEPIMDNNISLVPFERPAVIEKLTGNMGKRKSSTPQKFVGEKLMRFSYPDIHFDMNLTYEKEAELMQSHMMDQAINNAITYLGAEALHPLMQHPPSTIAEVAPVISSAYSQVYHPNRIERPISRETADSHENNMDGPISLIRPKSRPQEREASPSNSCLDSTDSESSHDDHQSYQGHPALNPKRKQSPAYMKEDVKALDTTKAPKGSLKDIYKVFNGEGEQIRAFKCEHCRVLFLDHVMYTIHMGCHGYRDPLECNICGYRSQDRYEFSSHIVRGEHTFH
T2 sequence (Q96SW2 whole entry): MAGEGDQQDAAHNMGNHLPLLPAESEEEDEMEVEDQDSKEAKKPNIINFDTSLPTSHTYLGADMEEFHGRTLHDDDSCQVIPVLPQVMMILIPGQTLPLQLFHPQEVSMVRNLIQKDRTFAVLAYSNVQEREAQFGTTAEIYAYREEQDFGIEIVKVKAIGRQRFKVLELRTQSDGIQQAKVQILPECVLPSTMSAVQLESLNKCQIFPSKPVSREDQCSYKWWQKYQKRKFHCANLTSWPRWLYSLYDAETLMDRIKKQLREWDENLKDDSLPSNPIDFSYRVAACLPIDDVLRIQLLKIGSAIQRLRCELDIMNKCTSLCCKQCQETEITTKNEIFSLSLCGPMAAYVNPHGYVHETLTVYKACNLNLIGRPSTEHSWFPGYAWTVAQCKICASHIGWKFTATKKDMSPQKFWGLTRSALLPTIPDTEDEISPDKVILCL
T2 sequence (Q16531 whole entry partner): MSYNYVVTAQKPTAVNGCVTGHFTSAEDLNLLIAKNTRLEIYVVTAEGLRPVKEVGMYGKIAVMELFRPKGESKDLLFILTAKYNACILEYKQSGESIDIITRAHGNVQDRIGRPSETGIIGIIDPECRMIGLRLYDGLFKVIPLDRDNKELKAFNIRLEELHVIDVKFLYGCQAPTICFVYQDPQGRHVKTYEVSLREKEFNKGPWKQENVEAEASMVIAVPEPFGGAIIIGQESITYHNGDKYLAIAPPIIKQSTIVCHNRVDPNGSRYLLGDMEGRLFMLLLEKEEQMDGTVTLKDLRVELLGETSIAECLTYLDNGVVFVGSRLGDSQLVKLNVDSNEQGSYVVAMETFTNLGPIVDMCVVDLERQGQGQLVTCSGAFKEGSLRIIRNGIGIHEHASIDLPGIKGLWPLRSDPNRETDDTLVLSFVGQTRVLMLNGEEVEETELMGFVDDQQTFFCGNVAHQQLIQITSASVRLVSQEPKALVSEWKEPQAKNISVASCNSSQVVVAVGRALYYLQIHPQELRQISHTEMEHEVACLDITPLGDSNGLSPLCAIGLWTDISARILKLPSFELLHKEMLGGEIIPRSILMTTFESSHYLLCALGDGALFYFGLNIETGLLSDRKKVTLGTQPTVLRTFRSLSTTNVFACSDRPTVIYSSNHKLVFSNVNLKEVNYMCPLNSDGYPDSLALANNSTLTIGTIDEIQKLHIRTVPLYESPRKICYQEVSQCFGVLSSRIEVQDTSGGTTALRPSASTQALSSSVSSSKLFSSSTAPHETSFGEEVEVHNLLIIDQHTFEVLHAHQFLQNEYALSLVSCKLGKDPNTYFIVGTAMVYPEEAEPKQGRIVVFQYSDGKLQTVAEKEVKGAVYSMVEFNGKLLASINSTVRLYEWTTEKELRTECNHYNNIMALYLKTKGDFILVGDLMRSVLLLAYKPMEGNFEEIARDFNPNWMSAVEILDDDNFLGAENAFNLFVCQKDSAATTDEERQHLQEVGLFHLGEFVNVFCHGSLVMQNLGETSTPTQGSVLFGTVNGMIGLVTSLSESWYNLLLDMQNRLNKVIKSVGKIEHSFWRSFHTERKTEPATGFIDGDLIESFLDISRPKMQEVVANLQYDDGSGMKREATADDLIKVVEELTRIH
T5 sequence (Q13422 whole entry): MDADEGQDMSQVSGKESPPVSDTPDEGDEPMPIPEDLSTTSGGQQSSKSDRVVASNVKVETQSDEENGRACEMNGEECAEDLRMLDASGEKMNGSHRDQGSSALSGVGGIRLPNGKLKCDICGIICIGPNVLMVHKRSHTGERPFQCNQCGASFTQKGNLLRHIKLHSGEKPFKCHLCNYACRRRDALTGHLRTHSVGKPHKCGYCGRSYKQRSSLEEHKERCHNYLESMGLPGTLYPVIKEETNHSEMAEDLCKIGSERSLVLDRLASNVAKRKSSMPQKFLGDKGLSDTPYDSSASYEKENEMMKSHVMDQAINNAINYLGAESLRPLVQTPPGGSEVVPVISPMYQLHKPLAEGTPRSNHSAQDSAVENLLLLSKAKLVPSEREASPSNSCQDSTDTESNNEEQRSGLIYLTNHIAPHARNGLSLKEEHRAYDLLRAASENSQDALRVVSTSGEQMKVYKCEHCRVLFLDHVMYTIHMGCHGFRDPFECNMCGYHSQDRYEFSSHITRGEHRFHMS
T5 sequence (Q96SW2 whole entry): as the sequence (Q96SW2 whole entry) above
T5 sequence (Q16531 whole entry partner): as the sequence (Q16531 whole entry partner) above
T1 sequence (P48729 whole entry): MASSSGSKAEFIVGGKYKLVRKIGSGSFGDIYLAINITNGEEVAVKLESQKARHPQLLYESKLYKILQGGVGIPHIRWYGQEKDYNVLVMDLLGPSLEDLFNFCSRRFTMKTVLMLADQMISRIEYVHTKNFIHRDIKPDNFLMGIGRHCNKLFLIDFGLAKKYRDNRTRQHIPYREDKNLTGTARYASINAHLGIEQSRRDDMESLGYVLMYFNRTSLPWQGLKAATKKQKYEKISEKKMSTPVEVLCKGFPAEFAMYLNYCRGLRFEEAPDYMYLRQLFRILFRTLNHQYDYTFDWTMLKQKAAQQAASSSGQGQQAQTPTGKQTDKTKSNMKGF
T1 sequence (Q96SW2 whole entry): as the sequence (Q96SW2 whole entry) above
T1 sequence (Q16531 whole entry partner): as the sequence (Q16531 whole entry partner) above
T4 sequence (Q9UKT9 whole entry): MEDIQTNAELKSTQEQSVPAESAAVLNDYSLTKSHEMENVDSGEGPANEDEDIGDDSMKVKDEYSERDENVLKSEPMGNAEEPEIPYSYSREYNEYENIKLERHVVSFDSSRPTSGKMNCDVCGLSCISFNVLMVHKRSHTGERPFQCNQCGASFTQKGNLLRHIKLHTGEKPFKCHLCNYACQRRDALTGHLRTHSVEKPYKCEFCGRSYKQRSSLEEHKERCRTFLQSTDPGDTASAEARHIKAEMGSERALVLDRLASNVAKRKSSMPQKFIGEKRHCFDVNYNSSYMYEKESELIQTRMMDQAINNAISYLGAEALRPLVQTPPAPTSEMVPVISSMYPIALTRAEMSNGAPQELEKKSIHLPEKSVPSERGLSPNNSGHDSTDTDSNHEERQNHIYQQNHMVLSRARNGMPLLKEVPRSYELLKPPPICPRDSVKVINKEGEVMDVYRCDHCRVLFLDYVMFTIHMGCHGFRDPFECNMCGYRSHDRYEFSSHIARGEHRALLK
T4 sequence (Q96SW2 whole entry): as the sequence (Q96SW2 whole entry) above
T4 sequence (Q16531 whole entry partner): as the sequence (Q16531 whole entry partner) above
T3 sequence (P15170 whole entry): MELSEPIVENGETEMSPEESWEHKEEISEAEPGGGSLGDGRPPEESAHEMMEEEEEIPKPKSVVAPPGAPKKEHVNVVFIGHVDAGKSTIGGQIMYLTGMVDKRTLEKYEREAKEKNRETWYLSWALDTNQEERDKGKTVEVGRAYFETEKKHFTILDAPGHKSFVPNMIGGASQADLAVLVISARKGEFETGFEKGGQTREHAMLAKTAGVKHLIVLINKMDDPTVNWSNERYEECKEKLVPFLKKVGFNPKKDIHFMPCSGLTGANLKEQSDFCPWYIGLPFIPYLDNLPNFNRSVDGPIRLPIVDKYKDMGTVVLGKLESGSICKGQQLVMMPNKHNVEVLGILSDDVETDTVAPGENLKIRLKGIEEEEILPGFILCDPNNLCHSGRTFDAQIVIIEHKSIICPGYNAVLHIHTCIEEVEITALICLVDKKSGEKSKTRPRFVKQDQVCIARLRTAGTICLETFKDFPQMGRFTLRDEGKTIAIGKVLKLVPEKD
T3 sequence (Q96SW2 whole entry): as the sequence (Q96SW2 whole entry) above
T3 sequence (Q16531 whole entry partner): as the sequence (Q16531 whole entry partner) above

SMILES	IC50 [1]	IC50 [2]	IC50 [3]	CK1α substrate protein remaining % [4]	IKZF2 substrate protein remaining % [5]	GSPT1 substrate protein remaining % [6]	IKZF3 substrate protein remaining % [7]	IKZF1 substrate protein remaining % [8]	WEE1 substrate protein remaining % [9]
O=C1CCN(N2Cc3cc(CN4CCN(c5cccc6sccc56)CC4)ccc3C2=O)C(=O)N1 [GT-04866, 1-(5-((4-(benzo[b]thiophen-4-yl)piperazin-1-yl)methyl)-1-oxoisoindolin-2-yl)dihydropyrimidine-2,4(1H,3H)-dione]	100 to 300 nM	300 to 500 nM	300 to 500 nM	B (80%< substrate protein remaining % ≤100%)	B (80%< substrate protein remaining % ≤100%)	A (0% ≤ substrate protein remaining % ≤80%)	B (80%< substrate protein remaining % ≤100%)	A (0% ≤ substrate protein remaining % ≤80%)	A (0% ≤ substrate protein remaining % ≤80%)
O=C1CCN(N2Cc3cc(CN4CC=C(c5cccs5)CC4)ccc3C2=O)C(=O)N1 [GT-04868, 1-(1-oxo-5-((4-(thiophen-2-yl)-3,6-dihydropyridin-1(2H)-yl)methyl)isoindolin-2-yl)dihydropyrimidine-2,4(1H,3H)-dione]	100 to 300 nM	300 to 500 nM	300 to 500 nM	A (0% ≤ substrate protein remaining % ≤80%)	B (80%< substrate protein remaining % ≤100%)	A (0% ≤ substrate protein remaining % ≤80%)	B (80%< substrate protein remaining % ≤100%)	A (0% ≤ substrate protein remaining % ≤80%)	A (0% ≤ substrate protein remaining % ≤80%)
Cc1ccc(C2=CCN(Cc3ccc4c(c3)CN(N3CCC(=O)NC3=O)C4=O)CC2)s1 [GT-04869, 1-(5-((4-(5-methylthiophen-2-yl)-3,6-dihydropyridin-1(2H)-yl)methyl)-1-oxoisoindolin-2-yl)dihydropyrimidine-2,4(1H,3H)-dione]	50 to 100 nM	300 to 500 nM	300 to 500 nM	B (80%< substrate protein remaining % ≤100%)	A (0% ≤ substrate protein remaining % ≤80%)	A (0% ≤ substrate protein remaining % ≤80%)	A (0% ≤ substrate protein remaining % ≤80%)	A (0% ≤ substrate protein remaining % ≤80%)	A (0% ≤ substrate protein remaining % ≤80%)
Cc1ccsc1C1=CCN(Cc2ccc3c(c2)CN(N2CCC(=O)NC2=O)C3=O)CC1 [GT-04870, 1-(5-((4-(3-methylthiophen-2-yl)-3,6-dihydropyridin-1(2H)-yl)methyl)-1-oxoisoindolin-2-yl)dihydropyrimidine-2,4(1H,3H)-dione]	50 to 100 nM	100 to 300 nM	100 to 300 nM	B (80%< substrate protein remaining % ≤100%)	A (0% ≤ substrate protein remaining % ≤80%)	A (0% ≤ substrate protein remaining % ≤80%)	A (0% ≤ substrate protein remaining % ≤80%)	A (0% ≤ substrate protein remaining % ≤80%)	A (0% ≤ substrate protein remaining % ≤80%)
O=C1CCN(N2Cc3cc(CN4CC=C(c5ccsc5)CC4)ccc3C2=O)C(=O)N1 [GT-04871, 1-(1-oxo-5-((4-(thiophen-3-yl)-3,6-dihydropyridin-1(2H)-yl)methyl)isoindolin-2-yl)dihydropyrimidine-2,4(1H,3H)-dione]	100 to 300 nM	300 to 500 nM	300 to 500 nM	B (80%< substrate protein remaining % ≤100%)	B (80%< substrate protein remaining % ≤100%)	A (0% ≤ substrate protein remaining % ≤80%)	B (80%< substrate protein remaining % ≤100%)	A (0% ≤ substrate protein remaining % ≤80%)	A (0% ≤ substrate protein remaining % ≤80%)
Cc1cscc1C1=CCN(Cc2ccc3c(c2)CN(N2CCC(=O)NC2=O)C3=O)CC1 [GT-04872, 1-(5-((4-(4-methylthiophen-3-yl)-3,6-dihydropyridin-1(2H)-yl)methyl)-1-oxoisoindolin-2-yl)dihydropyrimidine-2,4(1H,3H)-dione]	10 to 50 nM	100 to 300 nM	100 to 300 nM	B (80%< substrate protein remaining % ≤100%)	B (80%< substrate protein remaining % ≤100%)	A (0% ≤ substrate protein remaining % ≤80%)	B (80%< substrate protein remaining % ≤100%)	A (0% ≤ substrate protein remaining % ≤80%)	A (0% ≤ substrate protein remaining % ≤80%)
Cc1cc(C2=CCN(Cc3ccc4c(c3)CN(N3CCC(=O)NC3=O)C4=O)CC2)cs1 [GT-04873, 1-(5-((4-(5-methylthiophen-3-yl)-3,6-dihydropyridin-1(2H)-yl)methyl)-1-oxoisoindolin-2-yl)dihydropyrimidine-2,4(1H,3H)-dione]	50 to 100 nM	100 to 300 nM	100 to 300 nM	B (80%< substrate protein remaining % ≤100%)	B (80%< substrate protein remaining % ≤100%)	A (0% ≤ substrate protein remaining % ≤80%)	A (0% ≤ substrate protein remaining % ≤80%)	A (0% ≤ substrate protein remaining % ≤80%)	A (0% ≤ substrate protein remaining % ≤80%)
O=C1CCN(N2Cc3cc(CN4CCN(C(c5ccccc5)c5ccccc5)CC4)ccc3C2=O)C(=O)N1 [GT-04889, 1-(5-((4-benzhydrylpiperazin-1-yl)methyl)-1-oxoisoindolin-2-yl)dihydropyrimidine-2,4(1H,3H)-dione]	100 to 300 nM	300 to 500 nM	300 to 500 nM	B (80%< substrate protein remaining % ≤100%)	A (0% ≤ substrate protein remaining % ≤80%)	A (0% ≤ substrate protein remaining % ≤80%)	A (0% ≤ substrate protein remaining % ≤80%)	A (0% ≤ substrate protein remaining % ≤80%)	A (0% ≤ substrate protein remaining % ≤80%)

Reference: patent publication US20260356819A1, “OXOISOINDOLINYL-SUBSTITUTED […] DERIVATIVE AND USE THEREOF” (GLUETACS THERAPEUTICS (SHANGHAI) CO., LTD., priority 2023, published 2026)
